Measured values as given in the supplement of paper PMC8960247.
Where a name gives a salt, the structure may show the parent alone. ± gives the standard error.

How the values were obtained:
[1] = test system: 621-103 (TSC2-rescued); assay: relative viability vs DMSO; higher = less cytotoxic; details: serum: 10% FBS, 72 h
[2] = test system: 621-102 (TSC2-deficient); assay: as above; details: serum: 10% FBS, 72 h
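Further: immortalized renal angiomyolipoma cells stably carrying empty vector or TSC2, dosed in 384-well plates in DMEM, viability normalized to vehicle-treated wells within each plate.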

SMILES | relative viability ([1]; 0.0001 µM) | relative viability ([1]; 0.001 µM) | relative viability ([1]; 0.01 µM) | relative viability ([1]; 0.1 µM) | relative viability ([1]; 1 µM) | relative viability ([1]; 10 µM) | relative viability ([2]; 0.0001 µM) | relative viability ([2]; 0.001 µM) | relative viability ([2]; 0.01 µM) | relative viability ([2]; 0.1 µM) | relative viability ([2]; 1 µM) | relative viability ([2]; 10 µM)
OCCn1cc(-c2ccc3c(c2)CC/C3=N\O)c(-c2ccncc2)n1 [GDC-0879] | 101.6 ± 0.87% | 97.76 ± 0.82% | 98.9 ± 1.5% | 99.06 ± 0.76% | 96.15 ± 0.42% | 100.41 ± 0.061% | 101.5 ± 0.2% | 102 ± 1.7% | 107 ± 2.4% | 102 ± 2.6% | 108 ± 1.7% | 92.1 ± 2%
CS(=O)(=O)N1CCN(Cc2cc3nc(-c4cccc5[nH]ncc45)nc(N4CCOCC4)c3s2)CC1 [GDC-0941] | 98.45 ± 0.81% | 100 ± 2.2% | 98.08 ± 0.38% | 97.2 ± 2.3% | 83.3 ± 0.97% | 37.9 ± 0.47% | 106 ± 1.4% | 114 ± 2.3% | 114.7 ± 0.27% | 111 ± 2.6% | 97 ± 1.1% | 53.69 ± 0.36%
Cc1c(CN2CCN(C(=O)[C@H](C)O)CC2)sc2c(N3CCOCC3)nc(-c3cnc(N)nc3)nc12 [GDC-0980 (RC7422)] | 100.8 ± 0.26% | 98.64 ± 0.9% | 91.5 ± 5.1% | 75.5 ± 4.4% | 35.3 ± 2.2% | 30.2 ± 2% | 101 ± 1.1% | 114 ± 1.6% | 99.9 ± 1.4% | 89.64 ± 0.5% | 39.1 ± 1% | 23.3 ± 0.98%
O=C(O)Cc1cccc(OCCCN(Cc2cccc(C(F)(F)F)c2Cl)CC(c2ccccc2)c2ccccc2)c1 [GW3965] | 107 ± 1.3% | 108 ± 3.5% | 110.7 ± 1% | 106 ± 4.5% | 99.6 ± 5.4% | 101 ± 3.5% | 89.3 ± 0.92% | 88.7 ± 4% | 86.8 ± 4.3% | 86.31 ± 0.36% | 77.5 ± 4% | 86.9 ± 5.4%
CC[N+](CC)(CC)CCOc1cccc(OCC[N+](CC)(CC)CC)c1OCC[N+](CC)(CC)CC [Gallamine triethiodide (Flaxedil)] | 99.9 ± 4.2% | 87.2 ± 3% | 103 ± 1.7% | 92.4 ± 3.8% | 87.3 ± 1.9% | 99.6 ± 4.1% | 105 ± 2.9% | 109.1 ± 0.49% | 103 ± 3.5% | 102.6 ± 0.87% | 103.6 ± 0.17% | 89 ± 2%
COc1cc2ncnc(Nc3ccc(F)c(Cl)c3)c2cc1OCCCN1CCOCC1 [Gefitinib] | 101 ± 1.8% | 101 ± 1.2% | 102 ± 1.6% | 99.7 ± 1.1% | 99.2 ± 1.2% | 76.4 ± 3.7% | 111 ± 1.2% | 105.6 ± 0.46% | 106.5 ± 0.3% | 96.3 ± 4.1% | 100 ± 1.1% | 84.7 ± 1.8%
CNC(C)C1CCC(N)C(OC2C(N)CC(N)C(OC3OCC(C)(O)C(NC)C3O)C2O)O1 (stereo unspecified) [Gentamycin sulfate (Gentacycol)] | 99.8 ± 1.9% | 89.3 ± 9.2% | 89.5 ± 1.6% | 94.13 ± 0.19% | 88.3 ± 7.1% | 96.9 ± 3.5% | 104 ± 4.4% | 109 ± 2.3% | 113 ± 2.6% | 109 ± 4.9% | 106.5 ± 0.17% | 91.9 ± 1.7%
CN1C2CCCC1CC(NC(=O)c1nn(C)c3ccccc13)C2 (stereo unspecified) [Granisetron HCl] | 105.6 ± 0.89% | 102 ± 1.7% | 106.4 ± 0.23% | 106 ± 5.2% | 103 ± 4.2% | 102 ± 3% | 101 ± 3.8% | 99.5 ± 1% | 94.6 ± 1.2% | 99.56 ± 0.18% | 102.3 ± 0.95% | 95.1 ± 1.5%
CCS(=O)(=O)Nc1ccc2c(c1)/C(=C(/Nc1ccc(CN3CCCCC3)cc1)c1ccccc1)C(=O)N2 [Hesperadin] | 100 ± 3.2% | 93.1 ± 1.2% | 97.46 ± 0.18% | 85.6 ± 0.14% | 42.75 ± 0.27% | 3.8 ± 0.2% | 105 ± 6.1% | 95.5 ± 3.5% | 77.4 ± 2.1% | 85.2 ± 1.8% | 59.2 ± 1.9% | 2.25 ± 0.32%
CC[C@H](c1ccc(O)cc1)[C@@H](CC)c1ccc(O)cc1 [Hexestrol (Bibenzyl)] | 89.4 ± 5.1% | 89.3 ± 4% | 90.4 ± 1% | 90 ± 2.3% | 95 ± 2.3% | 95.35 ± 0.45% | 105 ± 2.8% | 121 ± 3.7% | 108 ± 5.3% | 100 ± 6.5% | 113 ± 2.7% | 99.9 ± 5.4%
O=C1[C@H](Cc2ccc(O)cc2)N2C(=O)CCN(C(=O)NCc3ccccc3)[C@H]2CN1Cc1cccc2ccccc12 [ICG-001] | 105 ± 2.9% | 109 ± 7.1% | 108.7 ± 0.74% | 103 ± 1.3% | 109 ± 1.5% | 37.8 ± 0.69% | 116 ± 2.7% | 105.3 ± 0.41% | 106 ± 1.1% | 102 ± 4.2% | 98.9 ± 2.3% | 52.9 ± 0.89%
CCN(CC)Cc1ccc2cc(COC(=O)Nc3ccc(C(=O)NO)cc3)ccc2c1 [ITF2357] | 98.21 ± 0.79% | 95.5 ± 1.7% | 96 ± 2% | 67.63 ± 0.33% | 26.9 ± 0.91% | 3.1 ± 0.064% | 107 ± 6.2% | 101 ± 3.4% | 95.94 ± 0.22% | 76.42 ± 0.1% | 57.1 ± 3.5% | 25.4 ± 0.77%
CC(C)Cc1ccc(C(C)C(=O)O)cc1 (stereo unspecified) [Ibuprofen] | 105.8 ± 0.48% | 99.2 ± 0.35% | 101 ± 0.81% | 99.61 ± 0.82% | 98.25 ± 0.82% | 98.82 ± 0.41% | 102.6 ± 0.15% | 109 ± 5.4% | 114 ± 1.2% | 112.4 ± 0.85% | 106 ± 1.3% | 104 ± 3.3%
COc1ccc(-c2oc3c(CC=C(C)C)c(O[C@@H]4O[C@H](CO)[C@@H](O)[C@H](O)[C@H]4O)cc(O)c3c(=O)c2O[C@@H]2O[C@@H](C)[C@H](O)[C@@H](O)[C@H]2O)cc1 [Icariin] | 116 ± 1.2% | 105 ± 3.3% | 109 ± 1.2% | 101 ± 1.4% | 98.3 ± 5.3% | 116 ± 3.7% | 93.6 ± 10% | 92.7 ± 2.9% | 89.44 ± 0.27% | 102 ± 5.1% | 87.9 ± 11% | 80.99 ± 0.32%
Cc1ccc(NC(=O)c2ccc(CN3CCN(C)CC3)cc2)cc1Nc1nccc(-c2cccnc2)n1 [Imatinib (STI571)] | 94.6 ± 4.2% | 97.664 ± 0.066% | 101 ± 0.77% | 101 ± 2% | 94.4 ± 3.7% | 96.9 ± 4.7% | 85.09 ± 0.54% | 107 ± 2.1% | 99 ± 3.4% | 109 ± 3.3% | 108 ± 2.7% | 95.35 ± 0.94%
Cc1ccc(NC(=O)c2ccc(CN3CCN(C)CC3)cc2)cc1Nc1nccc(-c2cccnc2)n1 [Imatinib Mesylate] | 95.2 ± 5.4% | 90.4 ± 3.4% | 101.6 ± 0.44% | 97.9 ± 1.8% | 98.3 ± 4.3% | 94.8 ± 4.8% | 99 ± 2.9% | 113 ± 3.7% | 108 ± 3.2% | 111 ± 3.6% | 107 ± 3.1% | 94.78 ± 0.7%
CCCCC1=NC2(CCCC2)C(=O)N1Cc1ccc(-c2ccccc2-c2nnn[nH]2)cc1 [Irbesartan (Avapro)] | 102 ± 1.3% | 96.3 ± 4.2% | 95.6 ± 3.6% | 102 ± 1.9% | 103 ± 4% | 107.2 ± 0.91% | 103.3 ± 0.78% | 100.8 ± 0.93% | 105 ± 3.8% | 101 ± 4.9% | 110 ± 1.1% | 104 ± 2.6%
CCc1c2c(nc3ccc(OC(=O)N4CCC(N5CCCCC5)CC4)cc13)-c1cc3c(c(=O)n1C2)COC(=O)[C@]3(O)CC [Irinotecan HCl Trihydrate] | 107 ± 5.2% | 107 ± 3.3% | 105 ± 1.8% | 101 ± 5.9% | 99.3 ± 1.9% | 57.5 ± 2.7% | 94 ± 3.9% | 98.4 ± 3% | 97.8 ± 1.5% | 108 ± 4.1% | 99.4 ± 3% | 63.351 ± 0.053%
